Source: PubChem BioAssay (NCI)
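Results reflect a 48-hour exposure of cells in 96-well plates to compound at five concentrations. TGI: concentration producing complete growth inhibition.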

Key:
Assay in all cases: DTP human tumour cell line panel, 48 h
CCRF-CEM leukemia = system: CCRF-CEM leukemia
COLO 205 colon = system: COLO 205 colon
HCC-2998 colon = system: HCC-2998 colon
SF-539 CNS = system: SF-539 CNS
NCI-H23 lung = system: NCI-H23 lung
HOP-92 NSCLC = system: HOP-92 NSCLC
SNB-75 CNS = system: SNB-75 CNS
UACC-257 melanoma = system: UACC-257 melanoma
IGROV1 ovarian = system: IGROV1 ovarian
MDA-MB-231 breast = system: MDA-MB-231 breast

| SMILES | TGI (CCRF-CEM leukemia) [µM] | TGI (COLO 205 colon) [µM] | TGI (HCC-2998 colon) [µM] | TGI (SF-539 CNS) [µM] | TGI (NCI-H23 lung) [µM] | TGI (HOP-92 NSCLC) [µM] | TGI (SNB-75 CNS) [µM] | TGI (UACC-257 melanoma) [µM] | TGI (IGROV1 ovarian) [µM] | TGI (MDA-MB-231 breast) [µM] |
| --- | --- | --- | --- | --- | --- | --- | --- | --- | --- | --- |
| Clc1ccc(SCCSCCCCCCCCCCSCCSc2ccc(Cl)cc2)cc1 | > 100 | > 100 | > 100 | > 100 | > 100 | > 100 | > 100 | > 100 | > 100 |  |
| NC(=O)N1N=C2c3ccccc3CC[C@@H]2C1c1ccccc1 (some centres undefined) | > 100 | > 100 | > 100 | > 100 | > 100 |  | > 100 | > 100 | > 100 |  |
| O=C1CN2Cc3cc(N4CCOCC4)ccc3N=C2N1 | > 100 | > 100 |  |  | > 100 | > 100 | > 100 | > 100 | > 100 | > 100 |
| CC1(C2(C)OC(=O)c3ccccc32)OC(=O)c2ccccc21 (centres undefined) |  | > 100 | > 100 | > 100 | > 100 | > 100 | > 100 | > 100 | > 100 | > 100 |
| CCCn1c(SCC)c2ccccc2c1-c1nc(F)nc(F)n1 | > 100 | > 100 | > 100 | > 100 | > 100 | > 100 |  |  |  |  |
| COC(=O)C(CCCC1(c2ccccc2)OCCO1)C(C)=O (centres undefined) | > 100 | > 100 | > 100 | > 100 | > 100 |  | > 100 | > 100 | > 100 |  |
| O=c1[nH]c(=O)n(C2CC(O)C(CO)O2)cc1OCCCc1ccccc1 (centres undefined) | > 100 | > 100 |  |  | > 100 |  | > 100 | > 100 | > 100 | > 100 |
| COc1cc2c(c(C)c1O)[C@H]1COc3ccccc3[C@H]1O2 | 56.6 | 52.2 |  | 36.7 | 64.2 | 47.6 | 23.7 | 52.9 | 31.3 |  |
| CC1=C2c3c(C)ccc4ccc(C)c(c34)C2(O)C(C)C1=O (centres undefined) |  | 72.2 | > 100 | > 100 |  | > 100 | > 100 | > 100 | > 100 | > 100 |
| Cc1cccc2c1Oc1ccccc1C2NC(=O)c1ccc([N+](=O)[O-])cc1 (centres undefined) | > 100 |  |  |  | > 100 | > 100 |  | > 100 | > 100 | > 100 |
| COC(=O)C1=C(C(=O)OC)C2(OC(C)=O)c3ccccc3-c3ccccc3C12 (centres undefined) |  | 3.68 | 31 | 31.6 | 25.6 | 3.67 | 24.4 | 11.8 | 10.1 |  |
| O=C(O)C1CCCN1Cc1cc2ccccc2c2ccccc12 (centres undefined) |  | > 100 |  | > 100 | > 100 | > 100 | > 100 | > 100 | > 100 | > 100 |
| CSC(C1c2ccccc2N(C)C2=NC(=O)N(C)C(=O)C21Cl)S(=O)(=O)c1ccc(C)cc1 (centres undefined) | 28.3 | > 100 | > 100 | > 100 | 83.5 | 59.9 | 75.9 | > 100 | > 100 |  |
| CC1(C)CC[C@]2(C)CC=C3[C@]4(C)CC[C@H]5C(C)(C)C(=O)CC[C@]5(C)[C@H]4CC[C@@]3(C)[C@H]2C1 | > 100 | > 100 | > 100 | > 100 | > 100 | > 100 |  | > 100 | > 100 | > 100 |
| COC(OC)c1cccc2c1C(=O)CCC1(O)c3ccccc3C1C2 (centres undefined) | > 100 | > 100 | > 100 | > 100 | > 100 |  | > 100 | > 100 | > 100 |  |
| CC1(C)N=C(C(N)=O)c2ncn(-c3ccccc3)c2N1 | > 100 | > 100 | > 100 | > 100 | > 100 |  | > 100 | > 100 | > 100 | > 100 |
| COc1cc(C2C(Cl)C(=O)N2NC(=O)c2ccccc2O)ccc1O (centres undefined) | > 100 |  | > 100 | > 100 | > 100 |  |  | > 100 | > 100 |  |
| O=C(CC(=O)N1N=C(N2CCCCC2)CC1c1ccccc1)Nc1ccc(Cl)cc1 (centres undefined) | > 100 | > 100 | > 100 |  | > 100 | > 100 | > 100 | > 100 | > 100 | > 100 |
| COC1=CC(=O)[C@H]2[C@H](C)C(c3ccccc3)[C@@]2(C)C1=O (some centres undefined) | > 100 | > 100 | > 100 | > 100 | > 100 | > 100 | > 100 |  | > 100 |  |
| CSc1nc(-c2cc3c(c(SC)n2)CCCCC3)cc2c1CCCCC2 | > 100 | > 100 | > 100 | > 100 | > 100 |  | > 100 | > 100 | 85.9 | > 100 |
| O=C1CCC[C@]2(CCC[C@@H](O)C2)N1 | > 100 | > 100 | > 100 | > 100 |  |  | > 100 | > 100 | > 100 | > 100 |
| COc1ccc(N2C(=O)C3ON(C(C(N)=O)c4ccccc4)C(c4ccc(-c5ccccc5)cc4)C3C2=O)cc1 (centres undefined) | > 50 | > 50 |  | > 50 | > 50 |  | > 50 | > 50 | > 50 | > 50 |
| Nc1nc(SCCNC(=O)CCc2ccc(O)cc2)nc2c1ncn2C1OC(CO)C(O)C1O (centres undefined) | > 203 | > 203 | > 203 | > 203 | > 203 | > 203 | > 203 | > 203 | > 203 |  |
| CC1(C)CC(=O)C2=C(C1)c1c(ccc3ccccc13)NC2c1cn(Cc2ccc(Cl)cc2)c2ccccc12 (centres undefined) | > 100 | > 100 |  | > 100 | > 100 | > 100 | > 100 | > 100 | > 100 | > 100 |
